Patent publication US20230190871A1, “METHODS AND COMPOSITIONS FOR TREATMENT OF VIRAL INFECTIONS” (priority 2020, published 2023)
Where two headings read alike, the source gives them in different places.

Columns and labels:
[1] = test system: SARS CoV-2 (USA_WA1/2020); assay type: cell-based
Vero E6 cells = details: African green monkey; for Cell Health: cell death / Cell Health: cells death: 48 h
[2] = test system: c19orf66 protein expression; experiment: doxycycline-induced c19orf66 protein expression by western blot in transduced Vero-E6 cells; assay type: cell-based; details: bulk sorted cells re-induced with 0, 0.8, 4, 20, 100 or 500 ng/mL
EGFP expression = experiment: doxycycline-induced EGFP reporter expression (microscopy / flow cytometry) in transduced Vero-E6 cells; assay type: cell-based

Row | Compound | number of infected cells (% infected cells) [1] | viral inhibition relative to remdesivir control [1] | Cell Health: cell death (Vero E6 cells; 10 ng/mL) | Cell Health: cell death (Vero E6 cells; 20 ng/mL) | Cell Health: cells death (Vero E6 cells; 50 ng/mL) | Cell Health: cells death (Vero E6 cells; 100 ng/mL) | Cell Health: doxycycline concentration at which cell death is observed (Vero E6 cells; 96 h) | doxycycline concentration inducing c19orf66 (western blot) [2] | EGFP: doxycycline concentration at which EGFP is visible (EGFP expression; Bulk Sorted, 48 hours) | EGFP: doxycycline concentration giving strong signal (EGFP expression; Bulk Sorted, 48 hours) | EGFP: doxycycline concentration at which EGFP is visible (EGFP expression; Bulk Sorted, 96 hours) | EGFP: doxycycline concentration at which EGFP is visible (EGFP expression; Clone 9, 48 hours) | EGFP: doxycycline concentration at which EGFP is visible (EGFP expression; Clone 9, 96 hours) | EGFP: doxycycline concentration at which EGFP is visible (EGFP expression; Clone 21, 48 hours) | EGFP: doxycycline concentration giving strong signal (EGFP expression; Clone 21, 48 hours) | EGFP: doxycycline concentration at which EGFP is visible (EGFP expression; Clone 21, 96 hours)
1 | C19orf66: Chromosome 19 Open Reading Frame 66 protein, interferon-stimulated gene; here expressed from a doxycycline-inducible lentiviral construct | reduction | comparable to remdesivir | – | – | – | – | – | – | – | – | – | – | – | – | – | –
2 | C[C@H]1c2cccc(O)c2C(=O)C2=C(O)[C@]3(O)C(=O)C(C(N)=O)=C(O)[C@@H](N(C)C)[C@@H]3[C@@H](O)[C@@H]21 [doxycycline] | – | – | 50% cell death at 10 ng/mL and worse at higher concentrations. | 50% | 20% | 40% | 10 ng/mL | at least 20 ng/mL | 10 ng/mL | 20 ng/mL | Visible at ≧ 10 ng/mL | Visible at 10 ng/mL and higher concentrations. | Visible at ≧ 10 ng/mL | 5 ng/mL | 10 ng/mL | Visible at ≧ 10 ng/mL
